Test results reported in patent US20110294772A1, “USE OF CYCLOSQUARAMIDE COMPOUNDS AS ANTI-TUMOUR AGENTS” (priority 2008, published 2011).

Tests used:
Test in all cases: NCI60 panel IC50
Type in all cases: cell-based
CCRF-CEM (Leukaemia) = conditions: Homo sapiens
Experimental: (§1) On the other hand, the values of IC50 were determined in the panel of NCl60 cell lines for compound 10.
(§2) A total of 2 independent experiments were carried out with assays in triplicate for the compound and cell line. All those assays where an IC50 value was not reached in the highest concentration of 1E-05 M are represented by “>1E-05”. In these cases, the standard deviation cannot be calculated and for that reason it is calculated as “-”.

SNB-19 (CNS) = conditions: Homo sapiens
Experimental: as §1, §2

PC-3 (Prostate) = conditions: Homo sapiens
Experimental: as §1, §2

T47-D (Breast) = conditions: Homo sapiens, T47D
Experimental: as §1, §2

Hs-578-T (Breast) = conditions: Homo sapiens
Experimental: as §1, §2

SHP-77 (Lung) = conditions: Homo sapiens, SHP77
Experimental: as §1, §2

DAUDI (Leukaemia) = conditions: Homo sapiens
Experimental: as §1, §2

SF-295 (CNS) = conditions: Homo sapiens
Experimental: as §1, §2

RPMI-8226 (Leukaemia) = conditions: Homo sapiens
Experimental: as §1, §2

SN 12C (Renal) = conditions: Homo sapiens, SN12C
Experimental: as §1, §2

HI-60 (Leukaemia) = conditions: Homo sapiens
Experimental: as §1, §2

SF539 (Astrocytoma) = conditions: Homo sapiens, SF-539
Experimental: as §1, §2

RXF-393 (Renal) = conditions: Homo sapiens
Experimental: as §1, §2

MDA-MB-468 (Breast) = conditions: Homo sapiens
Experimental: as §1, §2

NCI-H460 (Lung) = conditions: Homo sapiens
Experimental: as §1, §2

OVCAR-3 (Ovarian) = conditions: Homo sapiens
Experimental: as §1, §2

HOP-92 (Lung) = conditions: Homo sapiens
Experimental: as §1, §2

HCT-116 (Colon) = conditions: Homo sapiens
Experimental: as §1, §2

MDA-MB-231 (Breast) = conditions: Homo sapiens
Experimental: as §1, §2

UO-31 (Renal) = conditions: Homo sapiens
Experimental: as §1, §2

K-562 (Leukaemia) = conditions: Homo sapiens, K562
Experimental: as §1, §2

ADR-RE-3 (Breast) = conditions: Homo sapiens
Experimental: as §1, §2

SMILES: CN1CCCNc2c(c(=O)c2=O)NCCCN(C)CCCNc2c(c(=O)c2=O)NCCCN(C)CCCNc2c(c(=O)c2=O)NCCCN(C)CCCNc2c(c(=O)c2=O)NCCCN(C)CCCNc2c(c(=O)c2=O)NCCC1 [Compound 10]
- IC50 (CCRF-CEM (Leukaemia)): 2090 nM
- IC50 (SNB-19 (CNS)): 1810 nM
- IC50 (PC-3 (Prostate)): 2460 nM
- IC50 (T47-D (Breast)): 1890 nM
- IC50 (Hs-578-T (Breast)): 7790 nM
- IC50 (SHP-77 (Lung)): 2900 nM
- IC50 (DAUDI (Leukaemia)): 1990 nM
- IC50 (SF-295 (CNS)): 5520 nM
- IC50 (RPMI-8226 (Leukaemia)): 8970 nM
- IC50 (SN 12C (Renal)): 4120 nM
- IC50 (HI-60 (Leukaemia)): 2410 nM
- IC50 (SF539 (Astrocytoma)): 3520 nM
- IC50 (RXF-393 (Renal)): 2770 nM
- IC50 (MDA-MB-468 (Breast)): 2370 nM
- IC50 (NCI-H460 (Lung)): 6880 nM
- IC50 (OVCAR-3 (Ovarian)): 5070 nM
- IC50 (HOP-92 (Lung)): 3530 nM
- IC50 (HCT-116 (Colon)): 2980 nM
- IC50 (MDA-MB-231 (Breast)): 2320 nM
- IC50 (UO-31 (Renal)): 2170 nM
- IC50 (K-562 (Leukaemia)): 4070 nM
- IC50 (ADR-RE-3 (Breast)): 1620 nM
